For series [1], the target named is T1, SARS-CoV-2 M^pro (Severe acute respiratory syndrome coronavirus 2, UniProt P0DTD1).
T1 construct: in vitro FRET-based assay using recombinant M^pro; purchased Beyotime P0315M
The series is described as follows: biochemical. Particulars: for inhibition curve, in words: 0.01-20 μM; for change of inhibition results upon addition of detergent: 0.1% Triton X-100, aggregation control.

Series [2] has as its system Human coronavirus hCoV-229. The series is classed as cell-based.
Series [3] relates to MRC-5 cells. The series is described as follows: Cytotoxicity, MTT test. Particulars: 72 h, 100 to 3.12 μg/mL. (Formazan colour is commonly taken as a measure of viable cells.)
The test system of series [4] is HCoV 229E. In words: Viral titres (TCID50) in MRC-5 cells. The settings on record: MRC-5, 72 h, different concentrations.
[5] abbreviates: IC50, Figure 2 panels a-k, dose-response curve, mean ± SEM, n = 3.
Where [6] appears, read: Figure 2(l), Trial 1, read-out: IC50.
Setting [7] is: Figure 2(l), Trial 2, read-out: IC50.
[8] abbreviates: Figure 2(l), With Triton-X100, read-out: IC50.
[9] abbreviates: Figure 2 panels a-k, dose-response curve, mean ± SEM, n = 3, read-out: IC50.
Where [10] appears, read: Figure 4, With Triton-X100 (0.1%), unit inferred, read-out: IC50.
Where [11] appears, read: Figure 4, Without Triton-X100, unit inferred, read-out: IC50.

Structures are written as SMILES. Like-named read-outs stand apart in the source and are kept apart here.

`O=C1C2C3C=CC(C3)C2C(=O)C2C3C=CC(C3)C12` (centres unmarked) [Compound 5]: in series [1] (setting [5]), the IC50 (in general, the concentration that inhibits the measured activity by half) worked out at 9.79 ± 1.45 µM.
With `Cc1ccc(-c2oc3ccccc3c(=O)c2O)cc1` [Compound 2], the “inhibition curve, in words” value in series [1] is recorded as “atypical inhibition results”.
`c1ccc2sc(SSc3nc4ccccc4s3)nc2c1` [Compound 1]: the “change of inhibition results upon addition of detergent” value in series [1] is “did not change significantly”. In addition, the IC50 in series [1] (setting [6]) was found to be 0.714 µM; in series [1] (setting [7]), 0.768 µM; in series [1] (setting [8]), 0.622 µM; in series [1] (setting [9]), 0.714 ± 0.182 µM; in series [1] (setting [10]), 0.625 ± 0.102 µM; in series [1] (setting [11]), 0.786 ± 0.151 µM. The IC50 in series [1] (read-out: IC50) is 0.71 µM. Moreover, the “effect on cytopathogenic effect (CPE) of the virus” value is on record as “some reduction in CPE” in series [2] and “no inhibitory effect” in series [2] (high multiplicity of infection (high viral load), MRC-5, 72 h). For the same compound, the “cellular toxicity (cell viability)” value in series [3] is reported as “minimal toxicity”.
`Nc1nnc(Sc2ncc([N+](=O)[O-])s2)s1` [Compound 9, halicin]: the “change of inhibition results upon addition of detergent” value in series [1] is “did not change significantly”. In addition, the IC50 in series [1] (IC50) worked out at 0.42 µM; in series [1] (IC50, Figure 2(l), Trial 1), 0.42 µM; in series [1] (IC50, Figure 2(l), Trial 2), 0.419 µM; in series [1] (setting [5]) it was 0.42 ± 0.049 µM; in series [1] (IC50, Figure 4, With Triton-X100 (0.1%), unit inferred), 0.461 ± 0.081 µM. For the same compound, in series [3], the “cellular toxicity (cell viability)” value is listed as “toxic”.
For the compound `O=c1sc2ccccc2n1Cc1ccccc1` [Compound 7, 3-benzyl-1,3-benzothiazol-2-one], in series [1], the “inhibition curve, in words” value is listed as “atypical inhibition results”. Besides, the “change of inhibition results upon addition of detergent” value in series [1] is “did not change significantly”. Moreover, the IC50 in series [1] (IC50, Figure 2(l), Trial 1) was 0.174 µM; in series [1] (IC50, Figure 2(l), Trial 2), 0.179 µM; in series [1] (IC50, Figure 2(l), With Triton-X100), 0.241 µM. The “potency, in words” value in series [1] (at low concentrations, fluorescent signal increased at high compound concentrations) is recorded as “highly potent”. In addition, the “effect on cytopathogenic effect (CPE) of the virus” value in series [2] (across all the viral doses tested, MRC-5, 72 h) is on record as “very significant reduction in CPE”. In addition, the “cellular toxicity (cell viability)” value in series [3] is given as “minimal toxicity”. In series [4], the “effect on viral titres (TCID50)” value was “substantial reduction in the viral load”.
The compound `Nc1nnc(Sc2ccc([N+](=O)[O-])cn2)s1` [Compound 4] yielded a half-maximal inhibitory concentration (IC50) in series [1] (setting [5]) of 6.22 ± 1.79 µM.
For the compound `Cc1ccc(-n2c(/C=C/c3ccc([N+](=O)[O-])cc3)nc3ccccc3c2=O)cc1` [Compound 3], the IC50 in series [1] (setting [9]) was 38.3 ± 18.3 µM.
Consider `[O-][n+]1ccccc1SSc1cccc[n+]1[O-]` [Compound 8, dipyrithione], for which the “change of inhibition results upon addition of detergent” value in series [1] is recorded as “did not change significantly”. For the same compound, the IC50 in series [1] (setting [6]) came out at 0.172 µM; in series [1] (setting [7]), 0.171 µM; in series [1] (setting [8]), 0.266 µM; in series [1] (setting [9]), 0.172 ± 0.025 µM; in series [1] (setting [10]), 0.285 ± 0.038 µM; in series [1] (setting [11]), 0.173 ± 0.023 µM. For the same compound, the IC50 in series [1] (read-out: IC50) was 0.18 µM. Further, the “cellular toxicity (cell viability)” value in series [3] is recorded as “limited toxicity”.
For the compound `c1ccc(Sc2ncnc3c2oc2ccccc23)cc1` [Compound 6], half-maximal inhibition in series [1] (setting [5]) (IC50) required 4.98 ± 1.28 µM.

The record behind these values is PMC9621234, “Ligand-based discovery of coronavirus main protease inhibitors using MACAW molecular embeddings” (Journal of Enzyme Inhibition and Medicinal Chemistry, 2022).
